Assay results taken from patent US9732079B2, “Yellow reduced pyrroloquinoline quinone crystal and method of producing the same, and food, pharmaceutical, gel, composition and method of producing composition” (Mitsubishi Gas Chemical Company, Inc., priority 2013, dated 2017).

Columns and labels:
Type in all cases: physicochemical
[1] = Test on stability of crystal (dispersed in water); settings: 0.2 g mixed with water 1 mL, room temperature
Protocol: [Test on Stability of Crystal (Dispersed in Water)]
The crystal (0.2 g) obtained in Example 1 was mixed with water (1 mL).
The solid (0.2 g) obtained in Comparative Example 1 was mixed with water (1 mL).
The crystal (0.2 g) obtained in Comparative Example 2 was mixed with water (1 mL).

[2] = Test on solubility in ethanol; settings: 40 mg in ethanol 2 mL, ultrasonically treated one minute, room temperature 30 minutes or more, absorbance at 330 nm
Protocol: [Test on Solubility in Ethanol]
(§1) The crystal (40 mg) obtained in Example 1 was added to ethanol (2 mL), and was ultrasonically treated for one minute. The solution was left at room temperature for 30 minutes or more, and thereafter the resulting precipitate was centrifuged and the resulting supernatant was diluted with dimethyl sulfoxide to analyze the concentration at an absorbance at 330 nm.
as §1, with “2” for “1”
as §1, with “obtained in Comparative Example 1” for “obtained in Example 1”, “330 nm. The concentration was 1.4 mg/ML.” for “330 nm.”

[3] = Test on solubility in water; settings: 30 mg in water 1 mL, ultrasonically treated one minute, room temperature 30 minutes or more, absorbance at 310 nm
Protocol: [Test on Solubility in Water]
as §1, with “(30” for “(40”, “water (1” for “ethanol (2”, “water” for “dimethyl sulfoxide”, “310” for “330”, “nm. The concentration was 0.13 mg/mL.” for “nm.”
as §1, with “(30” for “(40”, “2” for “1”, “water (1” for “ethanol (2”, “water” for “dimethyl sulfoxide”, “310” for “330”, “nm. The concentration was 0.14 mg/mL.” for “nm.”
The solid (30 mg) obtained in Comparative Example 1 was added to water (1 mL), and was ultrasonically treated for one minute. The solution was left at room temperature for 30 minutes or more, and thereafter the resulting precipitate was centrifuged and the resulting supernatant was diluted with water to analyze the concentration at an absorbance at 310 nm. The concentration was 0.019 mg/mL.

[4] = Dispersibility in ethanol: gelation test; settings: for Homogeneity of ethanol mixture (upper and lower portions) / Appearance of ethanol mixture after standing: 20 mg in ethanol 2 mL; for Homogeneity of ethanol mixture (upper and lower portions): left at 20° C. for two to three hours; for Appearance of ethanol mixture after standing: ultrasonically treated one minute, left at 20° C. for two hours; for Appearance after adding ethanol mixture to water: 20 μL of gelled product / ethanol mixture added to water 1 mL
Protocol: [Dispersibility in Ethanol: Gelation Test]
The crystal (20 mg) obtained in Example 1 was added to ethanol (2 mL), and was ultrasonically treated for one minute. […] The gelled product was generated through the following process: the reduced PQQ crystals according to the present invention turned into fibers, and alcohol was encapsulated between these fibers in the form of a net to generate a gel.
The solid (20 mg) obtained in Comparative Example 1 was added to ethanol (2 mL), and was ultrasonically treated for one minute.

Structure (SMILES)	Appearance dispersed in water after one hour [1]	Appearance dispersed in water after two days [1]	Solubility in ethanol (concentration of supernatant) [2] [mg/mL]	Solubility in water (concentration of supernatant) [3] [mg/mL]	Homogeneity of ethanol mixture (upper and lower portions) [4]	Appearance of ethanol mixture after standing [4]	Appearance after adding ethanol mixture to water [4]	Dispersibility (overall conclusion) ([4]; ethanol gelation test, compared with Comparative Example 1)
O=C(O)c1cc(C(=O)O)c2c(n1)c(O)c(O)c1cc(C(=O)O)[nH]c12 [Comparative Example 2, reduced pyrroloquinoline quinone]	dark red dispersion	a black precipitate was generated and the solution was not homogenous	–	–	–	–	–	–
O=C(O)c1cc(C(=O)O)c2c(n1)c(O)c(O)c1cc(C(=O)O)[nH]c12 [Example 2, reduced pyrroloquinoline quinone]	–	–	3.2	0.14	–	–	–	–
O=C(O)c1cc(C(=O)O)c2c(n1)c(O)c(O)c1cc(C(=O)O)[nH]c12 [Example 1, reduced pyrroloquinoline quinone]	yellow homogenous dispersion	the dispersion remained the same	8.5	0.13	homogenous without any difference between upper and lower portions	orange gelled product	yellow homogenous dispersion	significantly high dispersibility
O=C(O)c1cc(C(=O)O)c2c(n1)c(O)c(O)c1cc(C(=O)O)[nH]c12 [Comparative Example 1, reduced pyrroloquinoline quinone]	a solution having a black solid sedimented therein	–	1.4	0.019	had a difference between the upper and lower portions	a black solid was sedimented and the solution was slightly yellowed	a solution having a black solid sedimented therein	–
